Where a name gives a salt, the structure may show the parent alone.
What was measured:
Assay type in all cases: cell-based
[1] = system: Multidrug-resistant Staphylococcus aureus 222; assay: In vitro antibacterial activity of combination of extract and antibacterial drug (MIC, FIC)
[2] = system: Multidrug-resistant Staphylococcus aureus 222; assay: MIC by liquid micro-dilution method; set-up: key: “+” means bacterial growth; “−” means no bacterial growth
Protocol: (§1) The minimum inhibitory concentration (MIC) of the extract was determined by liquid microdilution method.
(§2) Twenty-four hours before the experiment, the test strains preserved in low temperature were taken out and placed at room temperature. A small amount of bacterial liquid was drawn with a pipette, inoculated into the sterilized and cooled growth medium, and placed in a 35° C. incubator for 24 hours. A pipette was used to transfer a small amount of activated bacterial colonies to a sterilized dry test tube, diluted with medium to a turbidity similar to that of a 0.5 McFarland turbidimetric tube (1.5×10^8 CFU/mL), and then diluted with medium by […], so that the bacterial suspension concentration reaches 1.0×10^6 CFU/mL (diluted twice before being added to the wells, and the final bacterial concentration in the system being 5×10^5 CFU/mL) for MIC measurement.
(§3) In a sterile 96-well flat-bottom microculture plate, 100 μL of […] positive control solution was added to the No. […] 2-11 well, respectively. No. 12 well was solvent.
(§4) The plate was incubated in a 30° C. incubator for 24 hours, the experimental results were observed, and the minimum inhibitory concentration (MIC) values were determined. […] The difference was counted as “≤[…].” The above experiments were performed in parallel for 3 times. When the MIC value could be accurately repeated or only differed by one concentration, it was accepted. The higher concentration was used as the MIC value. When the MIC value differed by more than two concentrations, the experiment was repeated until it met the until requested.

[3] = system: Escherichia coli; assay: In vitro antibacterial activity of combination of extract and antibacterial drug (MIC, FIC)
[4] = system: Escherichia coli; assay: MIC by liquid micro-dilution method; set-up: key: “+” means bacterial growth; “−” means no bacterial growth
Protocol: as §1, §2, §3, §4

[5] = system: Salmonella; assay: In vitro antibacterial activity of combination of extract and antibacterial drug (MIC, FIC)
[6] = system: Salmonella; assay: MIC by liquid micro-dilution method; set-up: key: “+” means bacterial growth; “−” means no bacterial growth
Protocol: as §1, §2, §3, §4

[7] = system: Multidrug-resistant Pseudomonas aeruginosa 174; assay: MIC by liquid micro-dilution method; set-up: key: “+” means bacterial growth; “−” means no bacterial growth
Protocol: as §1, §2, §3, §4

[8] = system: Multidrug-resistant Pseudomonas aeruginosa 174; assay: In vitro antibacterial activity of combination of extract and antibacterial drug (MIC, FIC)
[9] = drug MIC in combination with the Paris Polyphylla Saponin Extract
[10] = Table 4, positive control 128 μg/mL (Table 3)
[11] = Table 6, positive control 128 μg/mL (Table 3)
[12] = Table 8, positive control 128 μg/mL (Table 3)
[13] = Table 7, positive control 128 μg/mL (Table 3)

Cc1nnc(SCC2=C(C(=O)O)N3C(=O)[C@@H](NC(=O)Cn4cnnn4)[C@H]3SC2)s1 [Cefazolin sodium]
Combination Treatment MIC Combination [1, 9]: 16 µg/mL | Combination Treatment MIC Single ([1]; drug alone): 128 µg/mL | bacterial growth [2, 10]: − | bacterial growth [2, 11]: − | bacterial growth [2, 12]: −

CO/N=C(\C(=O)N[C@@H]1C(=O)N2C(C(=O)O)=C(CSc3nc(=O)c(=O)[nH]n3C)CS[C@H]12)c1csc(N)n1 [Ceftriaxone sodium]
Combination Treatment MIC Combination [3, 9]: 0.5 µg/mL | Combination Treatment MIC Single ([3]; drug alone): 2 µg/mL | bacterial growth [4, 10]: − | bacterial growth [4, 11]: − | bacterial growth [4, 13]: − | bacterial growth [4, 12]: −

C[C@H]1COc2c(N3CCN(C)CC3)c(F)cc3c(=O)c(C(=O)O)cn1c23 [Levofloxacin hydrochloride]
Combination Treatment MIC Combination [5, 9]: 2 µg/mL | Combination Treatment MIC Single ([5]; drug alone): 4 µg/mL | bacterial growth [6, 10]: − | bacterial growth [6, 11]: − | bacterial growth [6, 13]: − | bacterial growth [6, 12]: −

CC1CCC2(OC1)OC1CC3C4CC=C5CC(OC6OC(CO)C(OC7OC(C)C(OC8OC(C)C(O)C(O)C8O)C(O)C7O)C(O)C6OC6OC(C)C(O)C(O)C6O)CCC5(C)C4CCC3(C)C1C2C (stereo not drawn) [Polyphyllin II]
bacterial growth ([6]; Table 6, 0.25 μg/mL): + | bacterial growth ([6]; Table 6, 0.5 μg/mL): + | bacterial growth ([6]; Table 6, 1 μg/mL): + | bacterial growth ([6]; Table 6, 2 μg/mL): + | bacterial growth ([6]; Table 6, 4 μg/mL): + | bacterial growth ([6]; Table 6, 8 μg/mL): + | bacterial growth ([6]; Table 6, 16 μg/mL): + | bacterial growth ([6]; Table 6, 32 μg/mL): + | bacterial growth ([6]; Table 6, 64 μg/mL): + | bacterial growth ([6]; Table 6, 128 μg/mL): + | bacterial growth ([6]; Table 6, 256 μg/mL): + | bacterial growth ([6]; Table 6, 512 μg/mL): + | bacterial growth ([6]; Table 6, 1024 μg/mL): + | bacterial growth ([4]; Table 6, 0.25 μg/mL): + | bacterial growth ([4]; Table 6, 0.5 μg/mL): + | bacterial growth ([4]; Table 6, 1 μg/mL): + | bacterial growth ([4]; Table 6, 2 μg/mL): + | bacterial growth ([4]; Table 6, 4 μg/mL): + | bacterial growth ([4]; Table 6, 8 μg/mL): + | bacterial growth ([4]; Table 6, 16 μg/mL): + | bacterial growth ([4]; Table 6, 32 μg/mL): + | bacterial growth ([4]; Table 6, 64 μg/mL): + | bacterial growth ([4]; Table 6, 128 μg/mL): + | bacterial growth ([4]; Table 6, 256 μg/mL): + | bacterial growth ([4]; Table 6, 512 μg/mL): + | bacterial growth ([4]; Table 6, 1024 μg/mL): + | bacterial growth ([2]; Table 6, 0.25 μg/mL): + | bacterial growth ([2]; Table 6, 0.5 μg/mL): + | bacterial growth ([2]; Table 6, 1 μg/mL): + | bacterial growth ([2]; Table 6, 2 μg/mL): + | bacterial growth ([2]; Table 6, 4 μg/mL): + | bacterial growth ([2]; Table 6, 8 μg/mL): + | bacterial growth ([2]; Table 6, 16 μg/mL): + | bacterial growth ([2]; Table 6, 32 μg/mL): + | bacterial growth ([2]; Table 6, 64 μg/mL): + | bacterial growth ([2]; Table 6, 128 μg/mL): + | bacterial growth ([2]; Table 6, 256 μg/mL): + | bacterial growth ([2]; Table 6, 512 μg/mL): + | bacterial growth ([2]; Table 6, 1024 μg/mL): +

CC1CCC2(OC1)OC1CC3C4CC=C5CC(OC6OC(CO)C(OC7OC(C)C(OC8OC(C)C(O)C(O)C8O)C(O)C7O)C(O)C6OC6OC(C)C(O)C(O)C6O)CCC5(C)C4CCC3(C)C1(O)C2C (stereo not drawn) [Polyphyllin VII]
bacterial growth ([6]; Table 8, 0.25 μg/mL): + | bacterial growth ([6]; Table 8, 0.5 μg/mL): + | bacterial growth ([6]; Table 8, 1 μg/mL): + | bacterial growth ([6]; Table 8, 2 μg/mL): + | bacterial growth ([6]; Table 8, 4 μg/mL): + | bacterial growth ([6]; Table 8, 8 μg/mL): + | bacterial growth ([6]; Table 8, 16 μg/mL): + | bacterial growth ([6]; Table 8, 32 μg/mL): + | bacterial growth ([6]; Table 8, 64 μg/mL): + | bacterial growth ([6]; Table 8, 128 μg/mL): + | bacterial growth ([6]; Table 8, 256 μg/mL): + | bacterial growth ([6]; Table 8, 512 μg/mL): + | bacterial growth ([6]; Table 8, 1024 μg/mL): + | bacterial growth ([4]; Table 8, 0.25 μg/mL): + | bacterial growth ([4]; Table 8, 0.5 μg/mL): + | bacterial growth ([4]; Table 8, 1 μg/mL): + | bacterial growth ([4]; Table 8, 2 μg/mL): + | bacterial growth ([4]; Table 8, 4 μg/mL): + | bacterial growth ([4]; Table 8, 8 μg/mL): + | bacterial growth ([4]; Table 8, 16 μg/mL): + | bacterial growth ([4]; Table 8, 32 μg/mL): + | bacterial growth ([4]; Table 8, 64 μg/mL): + | bacterial growth ([4]; Table 8, 128 μg/mL): + | bacterial growth ([4]; Table 8, 256 μg/mL): + | bacterial growth ([4]; Table 8, 512 μg/mL): + | bacterial growth ([4]; Table 8, 1024 μg/mL): + | bacterial growth ([2]; Table 8, 0.25 μg/mL): + | bacterial growth ([2]; Table 8, 0.5 μg/mL): + | bacterial growth ([2]; Table 8, 1 μg/mL): + | bacterial growth ([2]; Table 8, 2 μg/mL): + | bacterial growth ([2]; Table 8, 4 μg/mL): + | bacterial growth ([2]; Table 8, 8 μg/mL): + | bacterial growth ([2]; Table 8, 16 μg/mL): + | bacterial growth ([2]; Table 8, 32 μg/mL): + | bacterial growth ([2]; Table 8, 64 μg/mL): + | bacterial growth ([2]; Table 8, 128 μg/mL): + | bacterial growth ([2]; Table 8, 256 μg/mL): + | bacterial growth ([2]; Table 8, 512 μg/mL): + | bacterial growth ([2]; Table 8, 1024 μg/mL): + | bacterial growth ([7]; Table 8, 0.25 μg/mL): + | bacterial growth ([7]; Table 8, 0.5 μg/mL): + | bacterial growth ([7]; Table 8, 1 μg/mL): + | bacterial growth ([7]; Table 8, 2 μg/mL): + | bacterial growth ([7]; Table 8, 4 μg/mL): + | bacterial growth ([7]; Table 8, 8 μg/mL): + | bacterial growth ([7]; Table 8, 16 μg/mL): + | bacterial growth ([7]; Table 8, 32 μg/mL): + | bacterial growth ([7]; Table 8, 64 μg/mL): + | bacterial growth ([7]; Table 8, 128 μg/mL): + | bacterial growth ([7]; Table 8, 256 μg/mL): + | bacterial growth ([7]; Table 8, 512 μg/mL): + | bacterial growth ([7]; Table 8, 1024 μg/mL): +

C[C@@H]1CC[C@@]2(OC1)O[C@H]1C[C@H]3[C@@H]4CC=C5C[C@@H](O[C@@H]6O[C@H](CO)[C@@H](O)[C@H](O)[C@H]6O[C@@H]6O[C@@H](C)[C@H](O)[C@@H](O)[C@H]6O)CC[C@]5(C)[C@H]4CC[C@]3(C)[C@@]1(O)[C@@H]2C [Polyphyllin VI]
bacterial growth ([6]; Table 7, Conc. 0.25 μg/mL): + | bacterial growth ([6]; Table 7, Conc. 0.5 μg/mL): + | bacterial growth ([6]; Table 7, Conc. 1 μg/mL): + | bacterial growth ([6]; Table 7, Conc. 2 μg/mL): + | bacterial growth ([6]; Table 7, Conc. 4 μg/mL): + | bacterial growth ([6]; Table 7, Conc. 8 μg/mL): + | bacterial growth ([6]; Table 7, Conc. 16 μg/mL): + | bacterial growth ([6]; Table 7, Conc. 32 μg/mL): + | bacterial growth ([6]; Table 7, Conc. 64 μg/mL): + | bacterial growth ([6]; Table 7, Conc. 128 μg/mL): + | bacterial growth ([4]; Table 7, Conc. 0.25 μg/mL): + | bacterial growth ([4]; Table 7, Conc. 0.5 μg/mL): + | bacterial growth ([4]; Table 7, Conc. 1 μg/mL): + | bacterial growth ([4]; Table 7, Conc. 2 μg/mL): + | bacterial growth ([4]; Table 7, Conc. 4 μg/mL): + | bacterial growth ([4]; Table 7, Conc. 8 μg/mL): + | bacterial growth ([4]; Table 7, Conc. 16 μg/mL): + | bacterial growth ([4]; Table 7, Conc. 32 μg/mL): + | bacterial growth ([4]; Table 7, Conc. 64 μg/mL): + | bacterial growth ([4]; Table 7, Conc. 128 μg/mL): +

Gentamicin sulfate
Combination Treatment MIC Combination [8, 9]: 0.125 µg/mL | Combination Treatment MIC Single ([8]; drug alone): 0.125 µg/mL | bacterial growth [7, 10]: − | bacterial growth [7, 12]: −

Reference: patent US20230128907A1, “PARIS POLYPHYLLA SAPONIN EXTRACT WITH ACTIVITY AGAINST MULTIDRUG-RESISTANT BACTERIA AND PREPARATION AND USE THEREOF” (XI'AN KANGYUANSHENG BIOMEDICAL TECHNOLOGY CO., LTD., priority 2021, published 2023)
